# Laboratory results reported in PubChem BioAssay (NCI).
#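 Briefly, cells in 96-well plates were exposed to five compound concentrations for 48 h, and endpoints were estimated by linear interpolation. GI50 marks 50% less growth. TGI: concentration producing complete growth inhibition.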
# What was measured:
# Assay in all cases: inhibition of tumour cell growth, NCI panel, 48 h
# NCI-H226 lung = system: NCI-H226 lung
# HT29 colon = system: HT29 colon
# COLO 205 colon = system: COLO 205 colon
# NCI-H460 lung = system: NCI-H460 lung
# RPMI-8226 leukemia = system: RPMI-8226 leukemia
# HCT-116 colon = system: HCT-116 colon
# HCC-2998 colon = system: HCC-2998 colon
# T-47D breast = system: T-47D breast
# CCRF-CEM leukemia = system: CCRF-CEM leukemia
# SF-539 CNS = system: SF-539 CNS
# SK-MEL-5 melanoma = system: SK-MEL-5 melanoma
# OVCAR-8 ovarian = system: OVCAR-8 ovarian
# OVCAR-4 ovarian = system: OVCAR-4 ovarian
# BT-549 breast = system: BT-549 breast
# SN12C renal = system: SN12C renal
# SK-OV-3 ovarian = system: SK-OV-3 ovarian
# MDA-MB-435 = system: MDA-MB-435
# EKVX NSCLC = system: EKVX NSCLC
# HS 578T breast = system: HS 578T breast
# HL-60(TB) leukemia = system: HL-60(TB) leukemia
# UO-31 renal = system: UO-31 renal
# RXF 393 renal = system: RXF 393 renal
# NCI-H522 lung = system: NCI-H522 lung
# CAKI-1 renal = system: CAKI-1 renal
# UACC-257 melanoma = system: UACC-257 melanoma
# DU-145 prostate = system: DU-145 prostate
# MOLT-4 leukemia = system: MOLT-4 leukemia
# NCI-H23 lung = system: NCI-H23 lung
# LOX IMVI melanoma = system: LOX IMVI melanoma
# SK-MEL-28 melanoma = system: SK-MEL-28 melanoma
# HOP-92 NSCLC = system: HOP-92 NSCLC
# OVCAR-5 ovarian = system: OVCAR-5 ovarian
# A498 renal = system: A498 renal
# KM12 colon = system: KM12 colon
# SF-295 CNS = system: SF-295 CNS
# ACHN renal = system: ACHN renal
# SR leukemia = system: SR leukemia
# OVCAR-3 ovarian = system: OVCAR-3 ovarian
# M14 melanoma = system: M14 melanoma
# K-562 leukemia = system: K-562 leukemia
# UACC-62 melanoma = system: UACC-62 melanoma
# SNB-75 CNS = system: SNB-75 CNS
# MDA-MB-231 breast = system: MDA-MB-231 breast
# SK-MEL-2 melanoma = system: SK-MEL-2 melanoma
# A549 NSCLC = system: A549 NSCLC
# SF-268 CNS = system: SF-268 CNS
# SW-620 colon = system: SW-620 colon
# U251 CNS = system: U251 CNS
# IGROV1 ovarian = system: IGROV1 ovarian
# MCF7 breast = system: MCF7 breast
# TK-10 renal = system: TK-10 renal
# PC-3 prostate = system: PC-3 prostate
# HCT-15 colon = system: HCT-15 colon
# MALME-3M melanoma = system: MALME-3M melanoma
# NCI/ADR-RES ovarian = system: NCI/ADR-RES ovarian
# HOP-62 NSCLC = system: HOP-62 NSCLC
smiles,measurement,setting,value
CCCCN1CCN(c2ccc3nc(-c4ccc5nc(-c6ccc(OC)c(OC)c6)[nH]c5c4)[nH]c3c2)CC1,GI50,NCI-H226 lung,1340 nM
same,TGI,NCI-H226 lung,2970 nM
same,GI50,HT29 colon,389 nM
same,TGI,HT29 colon,1980 nM
same,GI50,COLO 205 colon,173 nM
same,TGI,COLO 205 colon,1360 nM
same,GI50,NCI-H460 lung,616 nM
same,TGI,NCI-H460 lung,1550 nM
same,GI50,RPMI-8226 leukemia,458 nM
same,TGI,RPMI-8226 leukemia,2120 nM
same,GI50,HCT-116 colon,285 nM
same,TGI,HCT-116 colon,1450 nM
same,GI50,HCC-2998 colon,1040 nM
same,TGI,HCC-2998 colon,2400 nM
same,GI50,T-47D breast,399 nM
same,TGI,T-47D breast,2850 nM
same,GI50,CCRF-CEM leukemia,434 nM
same,TGI,CCRF-CEM leukemia,2050 nM
same,GI50,SF-539 CNS,1220 nM
same,TGI,SF-539 CNS,2630 nM
same,GI50,SK-MEL-5 melanoma,599 nM
same,TGI,SK-MEL-5 melanoma,2130 nM
same,GI50,OVCAR-8 ovarian,435 nM
same,TGI,OVCAR-8 ovarian,2170 nM
same,GI50,OVCAR-4 ovarian,334 nM
same,TGI,OVCAR-4 ovarian,1880 nM
same,GI50,BT-549 breast,1270 nM
same,TGI,BT-549 breast,2690 nM
same,GI50,SN12C renal,738 nM
same,TGI,SN12C renal,3660 nM
same,GI50,SK-OV-3 ovarian,1430 nM
same,TGI,SK-OV-3 ovarian,6340 nM
same,GI50,MDA-MB-435,599 nM
same,TGI,MDA-MB-435,2000 nM
same,GI50,EKVX NSCLC,2140 nM
same,TGI,EKVX NSCLC,> 100000 nM
same,GI50,HS 578T breast,1300 nM
same,TGI,HS 578T breast,4310 nM
same,GI50,HL-60(TB) leukemia,646 nM
same,TGI,HL-60(TB) leukemia,2950 nM
same,GI50,UO-31 renal,8040 nM
same,TGI,UO-31 renal,> 39900 nM
same,GI50,RXF 393 renal,917 nM
same,TGI,RXF 393 renal,2150 nM
same,GI50,NCI-H522 lung,258 nM
same,TGI,NCI-H522 lung,1520 nM
same,GI50,CAKI-1 renal,490 nM
same,TGI,CAKI-1 renal,3980 nM
same,GI50,UACC-257 melanoma,537 nM
same,TGI,UACC-257 melanoma,2390 nM
same,GI50,DU-145 prostate,754 nM
same,TGI,DU-145 prostate,4040 nM
same,GI50,MOLT-4 leukemia,903 nM
same,TGI,MOLT-4 leukemia,3840 nM
same,GI50,NCI-H23 lung,617 nM
same,TGI,NCI-H23 lung,2030 nM
same,GI50,LOX IMVI melanoma,366 nM
same,TGI,LOX IMVI melanoma,1310 nM
same,GI50,SK-MEL-28 melanoma,857 nM
same,TGI,SK-MEL-28 melanoma,2240 nM
same,GI50,HOP-92 NSCLC,1520 nM
same,TGI,HOP-92 NSCLC,6640 nM
same,GI50,OVCAR-5 ovarian,2320 nM
same,TGI,OVCAR-5 ovarian,6090 nM
same,GI50,A498 renal,894 nM
same,TGI,A498 renal,2360 nM
same,GI50,KM12 colon,1370 nM
same,TGI,KM12 colon,3130 nM
same,GI50,SF-295 CNS,647 nM
same,TGI,SF-295 CNS,3540 nM
same,GI50,ACHN renal,2270 nM
same,TGI,ACHN renal,12400 nM
same,GI50,SR leukemia,308 nM
same,TGI,SR leukemia,1380 nM
same,GI50,OVCAR-3 ovarian,428 nM
same,TGI,OVCAR-3 ovarian,1950 nM
same,GI50,M14 melanoma,213 nM
same,TGI,M14 melanoma,1520 nM
same,GI50,K-562 leukemia,280 nM
same,TGI,K-562 leukemia,1890 nM
same,GI50,UACC-62 melanoma,431 nM
same,TGI,UACC-62 melanoma,1940 nM
same,GI50,SNB-75 CNS,180 nM
same,TGI,SNB-75 CNS,3840 nM
same,GI50,MDA-MB-231 breast,1540 nM
same,TGI,MDA-MB-231 breast,3100 nM
same,GI50,SK-MEL-2 melanoma,1320 nM
same,TGI,SK-MEL-2 melanoma,2770 nM
same,GI50,A549 NSCLC,1170 nM
same,TGI,A549 NSCLC,3320 nM
same,GI50,SF-268 CNS,1350 nM
same,TGI,SF-268 CNS,6640 nM
same,GI50,SW-620 colon,306 nM
same,TGI,SW-620 colon,1760 nM
same,GI50,U251 CNS,1050 nM
same,TGI,U251 CNS,2260 nM
same,GI50,IGROV1 ovarian,1290 nM
same,TGI,IGROV1 ovarian,3390 nM
same,GI50,MCF7 breast,196 nM
same,TGI,MCF7 breast,1560 nM
same,GI50,TK-10 renal,1120 nM
same,TGI,TK-10 renal,3440 nM
same,GI50,PC-3 prostate,1160 nM
same,TGI,PC-3 prostate,3290 nM
same,GI50,HCT-15 colon,3290 nM
same,TGI,HCT-15 colon,30000 nM
same,GI50,MALME-3M melanoma,73.4 nM
same,TGI,MALME-3M melanoma,1270 nM
same,GI50,NCI/ADR-RES ovarian,> 100000 nM
same,TGI,NCI/ADR-RES ovarian,> 100000 nM
same,GI50,HOP-62 NSCLC,1060 nM
same,TGI,HOP-62 NSCLC,5070 nM
